Assay results reported in patent US5449814A, “Lignan analogues, methods of preparation thereof and anti-hyperlipemic agents” (Shionogi & Co., Ltd., priority 1991, dated 1995).
Read-outs that look alike come from different tables or passages of the source.

How the values were obtained:
[1] = system: LDL; assay: Inhibitory effect on oxidative modification of LDL (copper-induced, TBA reactive substances); assay type: biochemical, New Zealand albino rabbits; conditions: rabbit LDL 0.2 mg protein/ml, 0.5 μM Cu^2+, 37° C., 24 hours; read-out: Inhibition of LDL oxidation IC50
Description: Inhibitory effect on oxidative modification of LDL
According to the method by Kita et al. (Proc. Natl. Acad. Sci., U.S.A, Vol. 84, 5928 (1987)), the experiment was proceeded as follows.
LDL was isolated from the blood of New Zealand albino rabbits fed with a diet containing 0.5% cholesterol for 3 weeks, and dissolved in phosphate-buffered physiological saline (final LDL concentration: 0.2 mg protein/ml). To this solution, each test compound in ethanol was added and then copper sulfate (final Cu^2+ concentration: 0.5 μM) was added thereto. The mixture was incubated at 37° C. for 24 hours.
After incubation, the content of lipid peroxides in each solution was determined as thiobarbituric acid reactive substances (TBA reactive substances). Concentration for 50% inhibition (IC50) was obtained from a linear regression curve of concentration of a compound versus % inhibition of oxidative modification of LDL. To quantify TBA reactive substances, proteins were removed from the solution after incubation, and the supernatant was examined for the content of TBA reactive substances by TBA method.

[2] = system: cholesterol in serum; assay: Hypocholesterolemic effect in cholesterol-fed mice; assay type: in vivo, Male ICR mice; conditions: Mus musculus, po, 168 h, diet 1% cholesterol and 0.5% sodium cholate with 0.12% test compound, 7 days
Description: Hypocholesterolemic effect
Male ICR mice weighing 30 to 40 g were allowed to access to a diet containing 1% cholesterol and 0.5% sodium cholate supplemented with 0.12% of a test compound (no test compound in control group) ad libitum for 7 days. Then, the blood was taken and total cholesterol in serum was determined by the method of Allain (Clin. Chem., Vol. 20, 470 (1974)).
Total amount of VLDL cholesterol and LDL cholesterol was obtained by subtracting HLD cholesterol from total cholesterol. HLD cholesterol was quantified by the method of Ash and Hentschel et al. (Clin. Chem., Vol. 24, 2180 (1978)).
Hypocholesterolemic effect of a test compound was evaluated based on % reduction in cholesterol calculated using the equation shown below.

COC(=O)c1c(C(=O)c2ccccc2)c(O)c2c(C)c(OC)c(OC)c(OC)c2c1-c1ccc(OC)c(OC)c1 [Example 78, 3-benzoyl-1-(3,4-dimethoxyphenyl)-4-hydroxy-2-methoxycarbonyl-5-methyl-6,7,8-trimethoxynaphthalene]
IC50 [1]: 620 nM
inhibition in vivo at 0.12 % in diet ([2]; serum, read-out: Total Chol. reduction (%)): 14%
inhibition in vivo at 0.12 % in diet ([2]; total minus HDL cholesterol, read-out: (VLDL + LDL) Chol. reduction (%)): 42%
